Assay results published in US20150197492A1, “NOVEL INDENO[1,2-c]QUINOLIN-11-ONE DERIVATIVES, PREPARATION METHOD AND APPLICATION THEREOF” (National Defense Medical Center, priority 2014, published 2015).

Legend:
Format in all cases: cell-based
CCRF-CEM = experiment: cells; settings: CCRF-CEM (Leukemia), 10 μM, 48 hours
HL-60 (TB) = experiment: cells; settings: HL-60 (TB) (Leukemia), 10 μM, 48 hours
SR = experiment: cells; settings: SR (Leukemia), 10 μM, 48 hours
A549/ATCC = experiment: cells; settings: A549/ATCC (Non-Small Cell Lung Cancer), 10 μM, 48 hours
EKVX = experiment: NCI cancer cell cytotoxicity assay, Non-Small Cell Lung Cancer EKVX; settings: 10 μM, 48 hours
HOP-62 = experiment: cells; settings: HOP-62 (Non-Small Cell Lung Cancer), 10 μM, 48 hours
NCI-H23 = experiment: cells; settings: NCI-H23 (Non-Small Cell Lung Cancer), 10 μM, 48 hours
NCI-H322M = experiment: cells; settings: NCI-H322M (Non-Small Cell Lung Cancer), 10 μM, 48 hours
NCI-H460 = experiment: cells; settings: NCI-H460 (Non-Small Cell Lung Cancer), 10 μM, 48 hours
NCI-H522 = experiment: cells; settings: NCI-H522 (Non-Small Cell Lung Cancer), 10 μM, 48 hours
COLO 205 = experiment: cells; settings: COLO 205 (Colon Cancer), 10 μM, 48 hours
HCC-2998 = experiment: cells; settings: HCC-2998 (Colon Cancer), 10 μM, 48 hours
HCT-116 = experiment: cells; settings: HCT-116 (Colon Cancer), 10 μM, 48 hours
SF-268 = experiment: cells; settings: SF-268 (CNS Cancer), 10 μM, 48 hours
SF-295 = experiment: cells; settings: SF-295 (CNS Cancer), 10 μM, 48 hours
SF-539 = experiment: cells; settings: SF-539 (CNS Cancer), 10 μM, 48 hours
LOX IMVI = experiment: cells; settings: LOX IMVI (Melanoma), 10 μM, 48 hours
M14 = experiment: cells; settings: M14 (Melanoma), 10 μM, 48 hours
SK-MEL-2 = experiment: cells; settings: SK-MEL-2 (Melanoma), 10 μM, 48 hours
SK-MEL-5 = experiment: cells; settings: SK-MEL-5 (Melanoma), 10 μM, 48 hours
OVCAR-3 = experiment: cells; settings: OVCAR-3 (Ovarian Cancer), 10 μM, 48 hours
OVCAR-5 = experiment: cells; settings: OVCAR-5 (Ovarian Cancer), 10 μM, 48 hours
OVCAR-8 = experiment: cells; settings: OVCAR-8 (Ovarian Cancer), 10 μM, 48 hours
NCI/ADR-RES = experiment: cells; settings: NCI/ADR-RES (Ovarian Cancer), 10 μM, 48 hours
CAKI-1 = experiment: cells; settings: CAKI-1 (Renal Cancer), 10 μM, 48 hours
TK-10 = experiment: cells; settings: TK-10 (Renal Cancer), 10 μM, 48 hours
PC-3 = experiment: cells; settings: PC-3 (Prostate Cancer), 10 μM, 48 hours
DU-145 = experiment: cells; settings: DU-145 (Prostate Cancer), 10 μM, 48 hours
MDA-MB-231/ATCC = experiment: cells; settings: MDA-MB-231/ATCC (Breast Cancer), 10 μM, 48 hours
HS 578T = experiment: cells; settings: HS 578T (Breast Cancer), 10 μM, 48 hours
BT-549 = experiment: cells; settings: BT-549 (Breast Cancer), 10 μM, 48 hours
HOP-92 = experiment: cells; settings: HOP-92 (Non-Small Cell Lung Cancer), 10 μM, 48 hours

## O=C1c2cc(Cl)ccc2-c2c(SCCO)nc3ccccc3c21 [SJ-25, 6-(2-Hydroxyethylthio)-9-chloro-11H-indeno[1,2-c]quinolin-11-one]
CCRF-CEM
  growth percentage: 71.56%
HL-60 (TB)
  growth percentage: 91.75%
SR
  growth percentage: 61.70%
A549/ATCC
  growth percentage: 76.42%
EKVX
  growth percentage: 30.15%
HOP-62
  growth percentage: 91.46%
NCI-H23
  growth percentage: 66.22%
NCI-H322M
  growth percentage: 73.47%
NCI-H460
  growth percentage: 79.22%
NCI-H522
  growth percentage: 68.89%
COLO 205
  growth percentage: 87.39%
HCC-2998
  growth percentage: 96.27%
HCT-116
  growth percentage: 77.94%
SF-268
  growth percentage: 96.53%
SF-295
  growth percentage: 73.28%
SF-539
  growth percentage: 100.05%
LOX IMVI
  growth percentage: 68.41%
M14
  growth percentage: 98.89%
SK-MEL-2
  growth percentage: 95.85%
SK-MEL-5
  growth percentage: 68.56%
OVCAR-3
  growth percentage: 89.42%
OVCAR-5
  growth percentage: 112.54%
OVCAR-8
  growth percentage: 90.21%
NCI/ADR-RES
  growth percentage: 73.58%
CAKI-1
  growth percentage: 41.86%
TK-10
  growth percentage: 99.82%
PC-3
  growth percentage: 58.35%
DU-145
  growth percentage: 92.27%
MDA-MB-231/ATCC
  growth percentage: 72.56%
HS 578T
  growth percentage: 58.28%
BT-549
  growth percentage: 92.88%

## CN1CCN(c2nc3ccccc3c3c2-c2ccc(Cl)cc2C3=O)CC1 [SJ-12, 9-Chloro-6-(4-methylpiperazin-1-yl)-11H-indeno[1,2-c]quinolin-11-one]
CCRF-CEM
  growth percentage: 92.44%
HL-60 (TB)
  growth percentage: 101.15%
SR
  growth percentage: 75.13%
A549/ATCC
  growth percentage: 96.43%
HOP-62
  growth percentage: 61.42%
HOP-92
  growth percentage: 38.50%
NCI-H23
  growth percentage: 86.27%
NCI-H322M
  growth percentage: 87.41%
NCI-H460
  growth percentage: 91.83%
NCI-H522
  growth percentage: 96.62%
COLO 205
  growth percentage: 93.65%
HCC-2998
  growth percentage: 103.21%
HCT-116
  growth percentage: 92.78%
SF-268
  growth percentage: 92.35%
SF-295
  growth percentage: 90.01%
SF-539
  growth percentage: 95.23%
LOX IMVI
  growth percentage: 87.17%
M14
  growth percentage: 106.31%
SK-MEL-2
  growth percentage: 104.36%
SK-MEL-5
  growth percentage: 97.67%
OVCAR-3
  growth percentage: 93.41%
OVCAR-5
  growth percentage: 99.31%
OVCAR-8
  growth percentage: 87.51%
NCI/ADR-RES
  growth percentage: 88.19%
CAKI-1
  growth percentage: 83.81%
TK-10
  growth percentage: 99.56%
PC-3
  growth percentage: 82.93%
DU-145
  growth percentage: 102.37%
MDA-MB-231/ATCC
  growth percentage: 62.53%
HS 578T
  growth percentage: 70.47%
BT-549
  growth percentage: 82.89%

## O=C1c2cc(Cl)ccc2-c2c(O)nc3ccccc3c21 [SJ-26, 6-Hydroxy-9-chloro-11H-indeno[1,2-c]quinolin-11-one]
CCRF-CEM
  growth percentage: 105.78%
HL-60 (TB)
  growth percentage: 102.31%
SR
  growth percentage: 77.02%
A549/ATCC
  growth percentage: 104.88%
EKVX
  growth percentage: 72.14%
HOP-62
  growth percentage: 91.26%
NCI-H23
  growth percentage: 81.56%
NCI-H322M
  growth percentage: 90.72%
NCI-H460
  growth percentage: 83.32%
NCI-H522
  growth percentage: 92.22%
COLO 205
  growth percentage: 98.25%
HCC-2998
  growth percentage: 102.24%
HCT-116
  growth percentage: 103.43%
SF-268
  growth percentage: 106.64%
SF-295
  growth percentage: 92.48%
SF-539
  growth percentage: 105.79%
LOX IMVI
  growth percentage: 86.91%
M14
  growth percentage: 108.50%
SK-MEL-2
  growth percentage: 117.12%
SK-MEL-5
  growth percentage: 84.87%
OVCAR-3
  growth percentage: 117.80%
OVCAR-5
  growth percentage: 126.77%
OVCAR-8
  growth percentage: 107.63%
NCI/ADR-RES
  growth percentage: 97.00%
CAKI-1
  growth percentage: 71.62%
TK-10
  growth percentage: 126.63%
PC-3
  growth percentage: 93.44%
DU-145
  growth percentage: 111.80%
MDA-MB-231/ATCC
  growth percentage: 86.98%
HS 578T
  growth percentage: 105.98%
BT-549
  growth percentage: 120.08%

## O=C1c2cc(Cl)ccc2-c2c(N3CCOCC3)nc3ccccc3c21 [SJ-8, 9-Chloro-6-morpholino-11H-indeno[1,2-c]quinolin-11-one]
CCRF-CEM
  growth percentage: 88.85%
HL-60 (TB)
  growth percentage: 97.09%
SR
  growth percentage: 85.94%
A549/ATCC
  growth percentage: 101.47%
HOP-62
  growth percentage: 78.71%
HOP-92
  growth percentage: 66.08%
NCI-H23
  growth percentage: 90.40%
NCI-H322M
  growth percentage: 91.28%
NCI-H460
  growth percentage: 102.14%
NCI-H522
  growth percentage: 91.11%
COLO 205
  growth percentage: 100.71%
HCC-2998
  growth percentage: 107.23%
HCT-116
  growth percentage: 93.64%
SF-268
  growth percentage: 103.58%
SF-295
  growth percentage: 102.43%
SF-539
  growth percentage: 96.24%
LOX IMVI
  growth percentage: 91.20%
M14
  growth percentage: 106.99%
SK-MEL-2
  growth percentage: 104.29%
SK-MEL-5
  growth percentage: 99.19%
OVCAR-3
  growth percentage: 102.34%
OVCAR-5
  growth percentage: 90.30%
OVCAR-8
  growth percentage: 95.25%
NCI/ADR-RES
  growth percentage: 94.32%
CAKI-1
  growth percentage: 94.99%
TK-10
  growth percentage: 101.98%
PC-3
  growth percentage: 79.64%
DU-145
  growth percentage: 119.02%
MDA-MB-231/ATCC
  growth percentage: 79.28%
HS 578T
  growth percentage: 88.93%
BT-549
  growth percentage: 93.95%

## CN(C)c1nc2ccccc2c2c1-c1ccc(Cl)cc1C2=O [SJ-2, 9-Chloro-6-(dimethylamino)-11H-indeno[1,2-c]quinolin-11-one]
CCRF-CEM
  growth percentage: 92.13%
HL-60 (TB)
  growth percentage: 95.49%
SR
  growth percentage: 86.12%
A549/ATCC
  growth percentage: 98.85%
HOP-62
  growth percentage: 78.02%
HOP-92
  growth percentage: 44.26%
NCI-H23
  growth percentage: 82.62%
NCI-H322M
  growth percentage: 78.83%
NCI-H460
  growth percentage: 94.17%
NCI-H522
  growth percentage: 88.97%
COLO 205
  growth percentage: 100.97%
HCC-2998
  growth percentage: 81.50%
HCT-116
  growth percentage: 98.57%
SF-268
  growth percentage: 100.26%
SF-295
  growth percentage: 93.22%
SF-539
  growth percentage: 87.80%
LOX IMVI
  growth percentage: 85.45%
M14
  growth percentage: 113.63%
SK-MEL-2
  growth percentage: 95.09%
SK-MEL-5
  growth percentage: 94.89%
OVCAR-3
  growth percentage: 103.48%
OVCAR-5
  growth percentage: 89.14%
OVCAR-8
  growth percentage: 84.55%
NCI/ADR-RES
  growth percentage: 92.57%
CAKI-1
  growth percentage: 84.65%
TK-10
  growth percentage: 91.84%
PC-3
  growth percentage: 82.55%
DU-145
  growth percentage: 106.50%
MDA-MB-231/ATCC
  growth percentage: 76.68%
HS 578T
  growth percentage: 72.84%
BT-549
  growth percentage: 102.55%
